Reference: patent publication US20230220021A1, “CYCLIC PEPTIDE INHIBITORS OF PSD-95 AND USES THEREOF” (University of Copenhagen, priority 2020, published 2023)
Where a SMILES comes first, the peptide text is derived from it. [ ]: non-standard residue; d: D form.

How the values were obtained:
PSD-95-PDZ2 [1] = target: T1, PSD-95-PDZ2 (Homo sapiens, UniProt P78352, V178C); assay: SPOT peptide array screening with TAMRA labelled PSD-95-PDZ2; assay type: binding; details: SPOT array, TAMRA labelled PSD-95-PDZ2-V178C, normalized to WT
T1 construct: screened with the TAMRA labelled PSD-95-PDZ2-V178C domain; 7xHis (N); made in house
Description: SPOT peptide array synthesis. To generate the cyclic nNOSβ-hairpin arrays, we used the Intavis MultiPep spotter (Intavis Bioanalytical instruments). The membranes employed in this assay were SynthoPlan APEG CE (standard amino-modified acid stable sellulose membrane with a PEG-spacer), 10×15 cm with a loading of 400 nmol cm^−2. Solutions of 0.3 M Fmoc-AA-OH and 0.3 M Oxyma Pure were prepared in N-methyl-2-pyrrolidone (NMP). The activator solution consisted of 0.3 M DIC and 0.3 M of 2,4,6-trimethylpyridine (Collidine) in NMP. The capping solution consisted of a solution of 1 M acetic anhydride and 0.05 M of 4-dimethylaminopyridine (DMAP) in NMP. The deprotection solution consisted of 20% piperidine in NMP. AA couplings were performed 1 h,4 times. Deprotection of the Fmoc groups was performed 15min,2 times. Membrane washing between couplings or deprotections was performed with NMP and ethanol. Elongation of peptides in cellulose membrane was started by coupling first the Fmoc-PEG(9)-OH (Iris Biotech) and the subsequent mixture of Fmoc-Gly-OH (25%) and Boc-Gly-OH (75%) to lower the total loading of the membrane. Afterwards, the resin was capped with the capping solution and extensively washed and soaked in bromophenol blue (BPB) as a quality control to reveal the SPOTS with a functional amino group. Then, we coupled the quasi-orthogonal group Fmoc-Glu-PP, and carried out the rest of the synthesis until peptide completion. The cellulose bound linear peptides were finally treated with a solution of 95% DCM, 3% TIPS and 2% TFA 3 times, 20 min. to remove the quasi-orthogonal group. Afterwards, the membrane was washed 5 times with DCM and neutralized with 5% DIPEA in DCM. The membrane was then washed 5 more times with DCM, 5 times with NMP and cyclized with 0.3M PyAOP and 0.3M of DIPEA in DMF for 3 h or overnight. Finally, the membrane was dried with DCM and the side-chain protecting groups were cleaved with the standard deprotection cocktail (95% TFA, 2.5% H2O and 2.5% TIPS) or with reagent K [TFA 82.5%, phenol 5%, H2O 5%, thioanisole 5% and 1,2-ethanedithiol (EDT) 2.5%] for 3 h.
SPOT membrane screening. Membranes were incubated with PBS pH 7.2+0.5% bovine serum albumin (BSA) for 1 h. After the incubation period, the membrane was dried and scanned with an Amershan Typhoon scanner, at 400V, Cy3 wavelength (532 nm). A TIF file of the screening and a file with the blank values were generated using the Image Quant software. Afterwards, a solution of 50 nM of TAMRA labelled PSD-95-PDZ2 domain was prepared in PBS pH 7.2+0.5% BSA and was added to the membrane. The membrane was left incubating in a Polymax 1040 rocking table for 1 h protected from the light. Passed the incubation time, the excess of labelled protein was removed by washing the membrane 3 times with PBS+0.5% BSA. Finally, the membrane fluorescence values were measured with the Amershan Typhoon scanner at 400V, Cy3 wavelength (532 nm). Using the Image Quant software, the TIF image of the screening and a file with the fluorescence values of the peptides with the TAMRA labelled PSD-95-PDZ2 were generated. The blank was then subtracted from the fluorescence values of the peptides screened against the TAMRA labelled PSD-95-PDZ2.
A deep mutational scan was performed on the WT scaffold, exchanging each AA to the remaining 19 L-AAs. Each array contained three copies of the individual peptides as technical replicates. Additionally, three controls were included in the design: the cyclic nNOS β-hairpin WT control (positive control), a linear nNOS peptide (cyclization control) and a cyclic nNOS β-hairpin with a F111V substitution (negative control previously tested in FP competition assays). For array screening, a mutation in PSD-95-PDZ2 residue V178 (PSD-95-PDZ2-V178C) was introduced, which was subsequently labelled with TAMRA maleimide. […]

PSD-95-PDZ2 [2] = target: T2, PSD-95-PDZ2 (Homo sapiens, UniProt P78352); assay: Fluorescence polarization (FP) competition assay against cyclic nNOS TAMRA probe; assay type: binding; details: for Ki: FP competition, cyclic nNOS TAMRA probe, mean of triplicates, N.B. = not binding, read-out: Ki; for Relative Ki (Ki mut/Ki WT): FP inhibition constant normalized to WT value
T2 construct: 7xHis (N); made in house; host or cells: Escherichia coli B21 pLys (for the mutants, 'as previously described')

| Compound | Normalized SPOT fluorescence (Mut/WT) (PSD-95-PDZ2 [1]) | Ki (PSD-95-PDZ2 [2]) [µM] | Relative Ki (Ki mut/Ki WT) (PSD-95-PDZ2 [2]) |
| --- | --- | --- | --- |
| CC[C@H](C)[C@@H]1NC(=O)[C@H]([C@@H](C)O)NC(=O)[C@H](CCCCN)NC(=O)[C@@H]2CCCN2C(=O)[C@H]([C@@H](C)O)NC(=O)CNC(=O)[C@H](CC(=O)O)NC(=O)CNC(=O)[C@H]([C@@H](C)O)NC(=O)[C@H](Cc2ccccc2)NC(=O)[C@H]([C@@H](C)O)NC(=O)[C@H]([C@@H](C)O)NC(=O)[C@H](CCC(=O)O)NC(=O)[C@H](CC(C)C)NC(=O)[C@H](C)NC(=O)[C@H]([C@@H](C)O)NC(=O)[C@H](CCC(N)=O)NC(=O)CNC(=O)[C@H]2CCCN2C(=O)[C@H](CCC(N)=O)NC(=O)[C@H]([C@@H](C)O)NC(=O)[C@H](C(C)C)NC(=O)[C@H](CCCNC(=N)N)NC1=O [compound 56] (cyclo(TALETTFTGDGTPKTIRVTQ[dP]GQ)) | 0.38 | – | 1.37 |
| CC[C@H](C)[C@@H]1NC(=O)[C@H]([C@@H](C)O)NC(=O)[C@H](CCCCN)NC(=O)[C@@H]2CCCN2C(=O)[C@H]([C@@H](C)O)NC(=O)CNC(=O)[C@H](CC(=O)O)NC(=O)CNC(=O)[C@H]([C@@H](C)O)NC(=O)[C@H](Cc2ccccc2)NC(=O)[C@H]([C@@H](C)O)NC(=O)[C@H]([C@@H](C)O)NC(=O)[C@H](C)NC(=O)[C@H](CC(C)C)NC(=O)[C@H](Cc2c[nH]cn2)NC(=O)[C@H]([C@@H](C)O)NC(=O)[C@H](CCC(N)=O)NC(=O)CNC(=O)[C@H]2CCCN2C(=O)[C@H](CCC(N)=O)NC(=O)[C@H]([C@@H](C)O)NC(=O)[C@H](C(C)C)NC(=O)[C@H](CCCNC(=N)N)NC1=O [compound 58] (cyclo(THLATTFTGDGTPKTIRVTQ[dP]GQ)) | 0.15 | – | 14.11 |
| CC[C@H](C)[C@@H]1NC(=O)[C@H]([C@@H](C)O)NC(=O)[C@H](CCCCN)NC(=O)[C@@H]2CCCN2C(=O)[C@H]([C@@H](C)O)NC(=O)CNC(=O)[C@H](CC(=O)O)NC(=O)CNC(=O)[C@H](C)NC(=O)[C@H](Cc2ccccc2)NC(=O)[C@H]([C@@H](C)O)NC(=O)[C@H]([C@@H](C)O)NC(=O)[C@H](CCC(=O)O)NC(=O)[C@H](CC(C)C)NC(=O)[C@H](Cc2c[nH]cn2)NC(=O)[C@H]([C@@H](C)O)NC(=O)[C@H](CCC(N)=O)NC(=O)CNC(=O)[C@H]2CCCN2C(=O)[C@H](CCC(N)=O)NC(=O)[C@H]([C@@H](C)O)NC(=O)[C@H](C(C)C)NC(=O)[C@H](CCCNC(=N)N)NC1=O [compound 62] (cyclo(THLETTFAGDGTPKTIRVTQ[dP]GQ)) | 0.97 | – | 1.18 |
| CC[C@H](C)[C@@H]1NC(=O)[C@H]([C@@H](C)O)NC(=O)[C@H](CCCCN)NC(=O)[C@@H]2CCCN2C(=O)[C@H]([C@@H](C)O)NC(=O)CNC(=O)[C@H](CC(=O)O)NC(=O)[C@H](C)NC(=O)[C@H]([C@@H](C)O)NC(=O)[C@H](Cc2ccccc2)NC(=O)[C@H]([C@@H](C)O)NC(=O)[C@H]([C@@H](C)O)NC(=O)[C@H](CCC(=O)O)NC(=O)[C@H](CC(C)C)NC(=O)[C@H](Cc2c[nH]cn2)NC(=O)[C@H]([C@@H](C)O)NC(=O)[C@H](CCC(N)=O)NC(=O)CNC(=O)[C@H]2CCCN2C(=O)[C@H](CCC(N)=O)NC(=O)[C@H]([C@@H](C)O)NC(=O)[C@H](C(C)C)NC(=O)[C@H](CCCNC(=N)N)NC1=O [compound 63] (cyclo(THLETTFTADGTPKTIRVTQ[dP]GQ)) | 0.68 | – | 3.03 |
| CC[C@H](C)[C@@H]1NC(=O)[C@H]([C@@H](C)O)NC(=O)[C@H](CCCCN)NC(=O)[C@@H]2CCCN2C(=O)[C@H]([C@@H](C)O)NC(=O)CNC(=O)[C@H](C)NC(=O)CNC(=O)[C@H]([C@@H](C)O)NC(=O)[C@H](Cc2ccccc2)NC(=O)[C@H]([C@@H](C)O)NC(=O)[C@H]([C@@H](C)O)NC(=O)[C@H](CCC(=O)O)NC(=O)[C@H](CC(C)C)NC(=O)[C@H](Cc2c[nH]cn2)NC(=O)[C@H]([C@@H](C)O)NC(=O)[C@H](CCC(N)=O)NC(=O)CNC(=O)[C@H]2CCCN2C(=O)[C@H](CCC(N)=O)NC(=O)[C@H]([C@@H](C)O)NC(=O)[C@H](C(C)C)NC(=O)[C@H](CCCNC(=N)N)NC1=O [compound 64] (cyclo(THLETTFTGAGTPKTIRVTQ[dP]GQ)) | 1.80 | – | 2.15 |

Now from value to compound:

| Normalized SPOT fluorescence (Mut/WT) (PSD-95-PDZ2 [1]) | Ki (PSD-95-PDZ2 [2]) [µM] | Relative Ki (Ki mut/Ki WT) (PSD-95-PDZ2 [2]) | Compound |
| --- | --- | --- | --- |
| 0.16 | 1.42 | 0.95 | CC[C@H](C)[C@@H]1NC(=O)[C@H]([C@@H](C)O)NC(=O)[C@H](CCCCN)NC(=O)[C@@H]2CCCN2C(=O)[C@H]([C@@H](C)O)NC(=O)CNC(=O)[C@H](CC(=O)O)NC(=O)CNC(=O)[C@H]([C@@H](C)O)NC(=O)[C@H](Cc2ccccc2)NC(=O)[C@H](CC(=O)O)NC(=O)[C@H]([C@@H](C)O)NC(=O)[C@H](CCC(=O)O)NC(=O)[C@H](CC(C)C)NC(=O)[C@H](Cc2c[nH]cn2)NC(=O)[C@H]([C@@H](C)O)NC(=O)[C@H](CCC(N)=O)NC(=O)CNC(=O)[C@H]2CCCN2C(=O)[C@H](CCC(N)=O)NC(=O)[C@H]([C@@H](C)O)NC(=O)[C@H](C(C)C)NC(=O)[C@H](CCCNC(=N)N)NC1=O [compound 54] (cyclo(THLETDFTGDGTPKTIRVTQ[dP]GQ)) |
| 0.97 | 1.5 | 1.00 | CC[C@H](C)[C@@H]1NC(=O)[C@H]([C@@H](C)O)NC(=O)[C@H](CCCCN)NC(=O)[C@@H]2CCCN2C(=O)[C@H]([C@@H](C)O)NC(=O)CNC(=O)[C@H](CC(=O)O)NC(=O)CNC(=O)[C@H]([C@@H](C)O)NC(=O)[C@H](Cc2ccccc2)NC(=O)[C@H]([C@@H](C)O)NC(=O)[C@H]([C@@H](C)O)NC(=O)[C@H](CCC(=O)O)NC(=O)[C@H](CC(C)C)NC(=O)[C@H](Cc2c[nH]cn2)NC(=O)[C@H](C)NC(=O)[C@H](CCC(N)=O)NC(=O)CNC(=O)[C@H]2CCCN2C(=O)[C@H](CCC(N)=O)NC(=O)[C@H]([C@@H](C)O)NC(=O)[C@H](C(C)C)NC(=O)[C@H](CCCNC(=N)N)NC1=O [compound 55] (cyclo(AHLETTFTGDGTPKTIRVTQ[dP]GQ)) |
| 0.66 | – | 2.62 | CC[C@H](C)[C@@H]1NC(=O)[C@H]([C@@H](C)O)NC(=O)[C@H](CCCCN)NC(=O)[C@@H]2CCCN2C(=O)[C@H]([C@@H](C)O)NC(=O)CNC(=O)[C@H](CC(=O)O)NC(=O)CNC(=O)[C@H]([C@@H](C)O)NC(=O)[C@H](Cc2ccccc2)NC(=O)[C@H](C)NC(=O)[C@H]([C@@H](C)O)NC(=O)[C@H](CCC(=O)O)NC(=O)[C@H](CC(C)C)NC(=O)[C@H](Cc2c[nH]cn2)NC(=O)[C@H]([C@@H](C)O)NC(=O)[C@H](CCC(N)=O)NC(=O)CNC(=O)[C@H]2CCCN2C(=O)[C@H](CCC(N)=O)NC(=O)[C@H]([C@@H](C)O)NC(=O)[C@H](C(C)C)NC(=O)[C@H](CCCNC(=N)N)NC1=O [compound 60] (cyclo(THLETAFTGDGTPKTIRVTQ[dP]GQ)) |
